One series concerns H929 cells. The series can be described thus: alamarBlue cell viability assay, H929 cells. It counts as cell-based, human. The method, then: (§1) Briefly, H929, U266-CD38^−, MM.1S, and Daudi cells were seeded at 5,000 cells/well in 96-well plates and co-cultured with fresh medium containing different test articles with the indicated concentrations at 37° C. for 5 hours, 1 day, 3 days, or 5 days. The viabilities of the cells were determined by alamarBlue™ cell viability reagent. About 10 μl alamarBlue™ cell viability reagent was added to the cells with a final concentration of 10% v/v, followed by incubating at 37° C. for 1.5 hours. The fluorescence was measured on a microplate reader in arbitrary fluorescent units following excitation at 560 nm and emission at 590 nm.
(§2) H929 cells were incubated for 5 hours, 1 day, 3 days, or 5 days (FIGS. 12A-12D), and MM.1S, U266-CD38-, and Daudi cells were incubated for 5 days (FIGS. 12E-12G). Then, cell viability was determined.
Background: The colour change of resazurin is a common sign of viable cells or microbes.

The subject of series [1] is H929 tumors. The series can be described thus: H929 xenograft tumor model (tumors 150±20 mm^3). It counts as in vivo, NOD-SCID mice. The conditions noted are these: 28 days.
Procedure: (§3) To generate subcutaneous tumors, 2×10^7 H929 cells in PBS were mixed with 50% (v/v) extracellular matrix gel and injected subcutaneously into the flanks of NOD-SCID mice. Tumor size and body weight were recorded every 2-3 days. Volumes of subcutaneously xenografted tumors in vivo were determined using an external caliper, where tumor volume was calculated by the modified ellipsoid formula, ½×(length×width×width). […] At the end of experiments, tumors were collected and weighed. Statistical analysis was performed with Student t test and statistical differences between groups were analyzed by one-way ANOVA with Bonferroni's multiple comparison post-tests.
The subject of the next series is U266-CD38- cells. As to the kind of experiment: alamarBlue cell viability assay, U266-CD38- cells. The format is cell-based. The conditions noted are these: 5 days, FIG. 12F. The method, then:
as §1, §2

Series [2] relates to H929 tumors. The series can be described thus: H929 xenograft tumor model, pilot study (tumors 115±15 mm^3). The conditions noted are these: single dose 20 nmol/kg i.p. 7 days post-transplantation, measured for 21 days.
Procedure: as §3
The tumors from all mice were excised and weighed on day 21 post drug administration.
A further series relates to MM.1S cells. As to the kind of experiment: alamarBlue cell viability assay, MM.1S cells. It counts as cell-based, human. The method, then:
as §1, §2

Series [3] is described as follows: HPLC analysis after 5-day incubation in PBS or RPMI medium without cells. The format is physicochemical. To be noted: 1 μM in PBS, 37° C., 5 days. The method, then:
The total run time was 45 minutes.
(Panels (A) and (D) of FIG. 8B).

The values below come from US20240342298A1, “METHODS OF TREATING TUMORS BY USING MOLECULAR CONSTRUCT” (Immunwork Inc., priority 2023, published 2024).

Turning to daratumumab, the “effect of cell death” value in the series on H929 cells (even at doses >20 μM) and in the series on MM.1S cells (even at doses >20 μM) was “no effect of cell death” each time. Besides, the “tumor growth compared to PBS” value in the series on H929 tumors [1] (single dose 20 nmol/kg on day 14 after transplantation) is given as “inhibited tumor growth”. Moreover, the killing effect result in the series on U266-CD38- cells is “did not possess any killing effect”. Also, the “change of tumor sizes compared to PBS” value in the series on H929 tumors [2] was “could only slow down tumor growth”.

On to `Nc1cccc2c1CN(C1CCC(=O)NC1=O)C2=O` (stereo not shown) [lenalidomide], for which the cell killing entry in the series on H929 cells (at doses >10 μM) and in the series with MM.1S cells (at doses >10 μM) was “only weak killing” in each case. Moreover, the “HPLC peaks after long-term incubation (hydrolysis)” value in series [3] is “two additional peaks (p2 and p1) respectively corresponding to its two hydrolyzed forms”. Further, in the series on H929 tumors [1] (daily i.p. injections), the “tumor growth compared to PBS” value is listed as “inhibited tumor growth”. In the series on U266-CD38- cells, the killing effect entry is reported as “some killing effect at high concentrations”.
